For one assay, the system named is interferon (IRF7). Kind of assay: MD-level time series after Kdo2-lipid A, normalized to time-matched DMSO. The note with it: mouse T-cells, 1-24 hour time course, relative to time-matched DMSO, FIG. 12E. It counts as cell-based. As for the experimental part: (§1) The top panel of FIG. 4A indicates the motif displacement distribution, MD-level, and the number of motifs within […] of any eRNA origin before and after stimulation with Nutlin-3a (e.g., Nutlin) on TP53, the transcription factor known to be activated. […] Blue dots indicate a MD-level difference <10^−6.
(§2) In each of the aforementioned perturbations, nascent transcription was assessed at a time point of one hour or less. Therefore, it was determined whether MD-levels could capture transcription factor activity across broader time frames. […] For a number of TFs, MD-levels trend upward at 12.5 minutes and show significant changes within 25 minutes of exposure.
(§3) GEO SRR numbers of these comparisons are outlined in Table 2.

Another assay deals with STAT2. Described as above. It counts as cell-based. The note with it: mouse T-cells, 1-24 hour time course, relative to time-matched DMSO, FIG. 12E. As for the experimental part:
as §1, §2, §3

The subject of another assay is YBOX1. Described as above. It counts as cell-based. The note with it: mouse T-cells, 1-24 hour time course, relative to time-matched DMSO, FIG. 12E.
Assay [1] concerns 641 available TF-motif models. Description: Differential MD-level analysis before/after Nutlin-3a, all available TF-motif models. It counts as cell-based, human. The note with it: HCT116 cells, of 641 TF-motif models, p-value<10^−6, FIG. 12A. From the text:
(§4) The bottom panel of FIG. 4A indicates the change in MD-level (AMDS) following perturbation (y-axis) relative to the number of motifs within 1.5kb of any eRNA origin (x-axis). […] (D) A time series data set following treatment with Flavopiridol Jonkers2014. The y-axis indicates the MD-level change relative to time point 0. Blue dots indicate a MD-level difference <10^−6. A darker shaded line indicates a time trajectory with at least one significant MD-level. (E) Time series data set following treatment with Kdo2-lipid A (KLA) where each time point is normalized to time-matched DMSO Kaikkonen2014. Therefore, the y-axis indicates MD-level difference relative to the time point matched DMSO sample.
(§5) The Motif Displacement score (MD-level) relates the proportion of significant motif sites within some window 2*h divided by the total number of motifs against some larger window 2*H centered at all bidirectional origin events. It is calculated on a per PWM binding model basis.
Let Xj={x1,x2, . . . } be the set of bidirectional origin locations genome wide for some experiment j. Let Yi={y1,y2, . . . } be the set of all significant motif sites for some TF-DNA binding motif model i genome wide, which is static as it only depends on the genome build of interest. Therefore the set of all MD-levels is calculated by equation 10. […]

Another assay deals with E4F1. Description: MD-level time series after flavopiridol. Conditions: mouse embryonic cells, time series 0-50 minutes relative to time point 0, FIG. 12D. The assay is classed as cell-based.
From the text: as §4
(§6) In each of the aforementioned perturbations, nascent transcription was assessed at a time point of one hour or less.
(§7) FIG. 12D data set following treatment with Flavopiridol Jonkers2014. The y-axis indicates the MD-level change relative to time point 0. […]
as §5
(§8) Let Xj={x1,x2, . . . } be the set of bidirectional origin locations genome wide for some experiment j. […] Therefore the set of all MD-levels is calculated by equation 10. […]

For the next assay, the system named is TP53. Description: MD-level time series after flavopiridol. It counts as cell-based. Conditions: mouse embryonic cells, time series 0-50 minutes relative to time point 0, FIG. 12D.
From the text: as §4, §6, §7, §5, §8

For a further assay, the system named is TFs. Kind of assay: MD-level time series after flavopiridol, all TFs. It counts as cell-based. The note with it: mouse embryonic cells.
From the text: as §4, §6, §7, §5, §8

With `CCCCCCCCCCCCCC(=O)O[C@H](CCCCCCCCCCC)CC(=O)O[C@@H]1[C@@H](NC(=O)C[C@@H](CCCCCCCCCCC)OC(=O)CCCCCCCCCCC)[C@H](OC[C@H]2O[C@H](OP(=O)(O)O)[C@H](NC(=O)C[C@H](O)CCCCCCCCCCC)[C@@H](OC(=O)C[C@H](O)CCCCCCCCCCC)[C@@H]2O)O[C@H](CO[C@]2(C(=O)O)C[C@@H](O[C@]3(C(=O)O)C[C@@H](O)[C@@H](O)[C@@H]([C@H](O)CO)O3)[C@@H](O)[C@@H]([C@H](O)CO)O2)[C@H]1OP(=O)(O)O` [Kdo2-lipid A], in the assay on interferon (IRF7), the “shifts in MD-level of interferon (IRF7)” value was “dynamic and time-ordered shifts”. Moreover, in the assay with STAT2, the “shifts in MD-level of STAT2” value was “dynamic and time-ordered shifts”. Besides, the “change in co-localization (MD-level) of YBOX1” value in the assay with YBOX1 is listed as “decreased in co-localization”.
As for `COc1ccc(C2=N[C@@H](c3ccc(Cl)cc3)[C@@H](c3ccc(Cl)cc3)N2C(=O)N2CCNC(=O)C2)c(OC(C)C)c1` [Nutlin-3a], the “TF-motif models displaying elevated MD-levels following treatment” value in assay [1] is “only TP53 and TP63”.
For `CN1CC[C@H](c2c(O)cc(O)c3c(=O)cc(-c4ccccc4Cl)oc23)[C@H](O)C1` [flavopiridol], in the assay with E4F1, the “change in MD-level of E4F1” value is “dramatic and monotonic increase”. In addition, the “change in MD-level of TP53” value in the assay with TP53 is “dramatic and monotonic increase”. Further, the “MD-levels at 12.5 minutes, a number of TFs” value in the assay with TFs (12.5 minutes of exposure) is recorded as “trend upward”. In addition, the “time of exposure to significant changes in MD-levels, a number of TFs” value in the assay on TFs (significance p<10^−6) is at most 25 min.

Values taken from patent US20250308622A1, “METHODS FOR PREDICTING TRANSCRIPTION FACTOR ACTIVITY” (THE REGENTS OF THE UNIVERSITY OF COLORADO, A BODY CORPORATE, priority 2017, published 2025).
